Measurements taken from patent US8680288B2, “Pyridin-2yl sulfanyl acid esters and process for the preparation thereof” (Council of Scientific & Industrial Research, priority 2010, dated 2014).
“Also recorded” adds a separate entry of the source. Like-named read-outs stand apart in the source and are kept apart here.

Assays:
[1] = system: adhesion of neutrophils onto human umbilical vein endothelial cells (HUVECs); assay: Neutrophil adhesion assay on LPS-induced endothelial cells (static conditions); format: cell-based; conditions: LPS (1 μg/ml) 6 hrs; for IC50: HUVEC, read-out: Neutrophil Adhesion Inhibition IC50
Procedure: (§1) Primary endothelial cells were isolated from human umbilical cord using mild trypsinization (Kumar, S., Arya, P., Mukherjee, C., Singh, B. K., Singh, N., Parmar, V. S., Prasad, A. K., Ghosh, B. Novel Aromatic Ester from Piper longum and Its Analogues Inhibit Expression of Cell Adhesion Molecules on Endothelial Cells. Biochemistry. 2005, 44, 15944-15952). The cells were grown in M199 medium (Sigma, USA) supplemented with 15% heat inactivated fetal calf serum (Biological Industries, Israel), 2 mM L-glutamine (Sigma, USA), 100 units/ml penicillin (Sigma, USA), 100 μg/ml streptomycin (Sigma, USA), 0.25 μg/ml amphotericin B (Sigma, USA), endothelial cell growth factor (50 μg/ml) (Sigma, USA). At confluence, the cells were subcultured using 0.05% trypsin-0.01 M EDTA solution and were used between passages three to four.
Neutrophils were isolated from peripheral blood of healthy individuals (Kumar S et al, 2005). Blood was collected in heparin solution (20 U/ml) and erythrocytes were removed by sedimentation against 6% dextran solution. Plasma, rich in white blood cells, was layered over Ficoll-Hypaque solution (Sigma, USA), followed by centrifugation (300 g for 20 min, 20° C.). The top saline layer and the Ficoll-Hypaque layer were aspirated leaving neutrophils/RBC pellet. The residual red blood cells were removed by hypotonic lysis. Isolated cells were washed with PBS and resuspended in PBS containing 5 mM glucose, 1 mM CaCl2, and 1 mM MgCl2 at a final concentration of 6×10^5 cells/ml.
Neutrophil adhesion assay was performed under static conditions as described previously (Kumar S et al, 2005). Briefly, endothelial cells plated in 96-well culture plates were incubated with or without RS—Z at desired concentrations for 2 hrs, followed by induction with LPS (1 μg/ml) for 6 hrs. Endothelial monolayers were washed with PBS and neutrophils (6×10^4/well) were added over it and were allowed to adhere for 1 hr at 37° C. The non-adherent neutrophils were washed with PBS and neutrophils bound to endothelial cells were assayed by adding a substrate solution consisting of o-phenylenediamine dihydrochloride (40 mg/100 ml in citrate phosphate buffer, pH 4.5), 0.1% cetrimethyl ammonium bromide, and 3-amino-1,2,4 triazole (1 mM). The absorbance was read at 490 nm using an automated microplate reader (Model 680, Bio-Rad, USA).

[2] = system: human umbilical vein endothelial cell (HUVEC); assay: Cell viability (MTT) assay on endothelial cells; format: cell-based; conditions: Concentration of compounds where >95% cells are viable
Procedure: as §1
The cytotoxicity of these compounds was analyzed by colorimetric MTT (methylthiazolydiphenyl-tetrazolium bromide, Sigma, USA) assay as described (Kumar S et al, 2005). Briefly, endothelial cells were treated with DMSO alone (0.25%, as vehicle) or with different concentrations of compounds for 24 hrs. Four hrs before the end of incubation, medium was removed and 100 μl MTT (5 mg/ml in serum free medium) was added to each well. The MTT was removed after 4 hrs, cells were washed out with PBS (phosphate buffered saline, pH 7.4), and 100 μl DMSO was added to each well to dissolve water insoluble MTT-formazan crystals. Absorbance was recorded at 570 nm in an ELISA reader (Bio-Rad, Model 680, USA). All experiments were performed at least 3 times in triplicate wells.

[3] = system: ICAM-1 (Intercellular cell adhesion molecule-1); assay: Cell-ELISA for measurement of LPS-induced ICAM-1 expression on endothelial cells; format: cell-based; conditions: LPS (1 μg/ml) 16 hrs, human endothelial cells, read-out: ICAM-1 inhibition IC50
Procedure: as §1
Cell-ELISA was used for measuring the expression of ICAM-1 on surface of endothelial cells (Kumar S et al, 2005) Endothelial cells were incubated with or without the test compounds at desired concentrations for the required period, followed by treatment with LPS (1 μg/ml) (BD, USA) for 16 hrs for ICAM-1 expression. The cells were fixed with 1.0% glutaraldehyde (Sigma, USA). Non-specific binding of antibody was blocked by using skimmed milk (3.0% in PBS). Cells were incubated overnight at 4° C. with anti-ICAM-1 mAb (BD, USA), diluted in blocking buffer, the cells were further washed with PBS and incubated with peroxidase-conjugated goat anti-mouse secondary antibody (Sigma, USA). After washings, cells were exposed to the peroxidase substrate (o-phenylenediamine dihydrochloride 40 mg/100 ml in citrate phosphate buffer, pH 4.5). Reaction was stopped by the addition of 2 N sulfuric acid and absorbance at 490 nm was measured using microplate reader (Spectramax 190, Molecular Devices, USA).

[4] = system: LPS induced acute lung injury; assay: LPS aerosol induced acute lung injury model in mice (BALF cell counts, lung injury score); format: in vivo; conditions: for Neutrophil count in the BALF / neutrophil influx in the lungs / Lung injury score / LPS-induced lung injury: post-treatment i.p. 0.1, 1.0 and 10 mg/kg; for Neutrophil count in the BALF / neutrophil influx in the lungs: FIG. 2B; for Lung injury score / LPS-induced lung injury: FIG. 3
Procedure: BALB/c male mice 10 weeks old were randomly divided into 5 groups with 6 mice in each group.
Group 1: saline challenged/vehicle (0.25% CMC) treated
Group 2: LPS challenged/vehicle treated
Group 3: LPS challenged/RS—Z (0.1 mg/kg in 0.25% CMC) treated
Group 4: LPS challenged/RS—Z (1 mg/kg in 0.25% CMC) treated
Group 5: LPS challenged/RS—Z (10 mg/kg in 0.25% CMC) treated
Mice in Groups 2, 3, 4 and 5 were challenged with an aerosol of LPS (E. coli strain 026:B6) at a concentration of 300 μg/ml in normal saline for 30 minutes. Mice were placed in a Plexiglas chamber (20×20×10 cm^3) and exposed to an aerosol generated from a nebulizer (Omtron model, USA) with an airflow rate of 9 L/min. Group 1(Control) mice were challenged with saline alone.
Mice were treated with either vehicle or RS—Z thirty minutes after the LPS challenge. Mice in group 1 (control) and Group 2 (LPS challenged) were vehicle (0.25% CMC) treated intraperitoneally (i.p.). Mice in Group 3 were treated with RS—Z at a dose of 0.1 mg/kg body weight by i.p. injection. Mice in Group 4 were treated with RS—Z at a dose of 1.0 mg/kg body weight by i.p. injection. Group 5 were treated with RS—Z at a dose of 10 mg/kg body weight by i.p. injection.
Mice were sacrificed three hrs after the LPS challenge using an overdose of sodium pentothal (100 mg/kg, i.p.). The trachea were cannulated and 0.5 ml of PBS (phosphate buffered saline) was used for lavage at a time and this step was repeated three times. About 1.5 ml of BAL fluid was recovered per mouse. The BAL fluid was centrifuged (400×g, 4° C., 6 min) and the supernatant was kept at −70° C. until analyzed for biochemical parameters. The BAL cells were washed three times with PBS and the pellet was resuspended in 200 μl cold PBS. For total cell counts, BAL cell suspension was diluted 1:20 in PBS and cells were counted in a hemocytometer. For differential counts, BALF cell suspension smear was made on glass slides followed by Leishman's stain. The cells were identified and counted by standard methodology. At least 300 cell (all types) per slide were counted and the percentage of neutrophils was calculated.
The excised lung portions from all the groups was fixed in 10% Buffered formalin. The fixed tissue was embedded in paraffin, sectioned into 4 μm and stained with haematoxylin-eosin for observation under the light microscope. The injury was scored with a semi-quantitative grading system based on the structure changes edema, alveolar and interstitial hemorrhage and inflammatory cells sequestration (Matthay M A, Zimmerman G A, Esmon C, Bhattacharya J, Caller B, et al. (2003) Future research directions in acute lung injury: Summary of a National Heart, Lung, and Blood Institute working group. Am J Respir Crit. Care Med 167: 1027-1035). Semi-quantitative grading system was a 0-to-4 point grading system: 0=No injury, 1=25% injury in a light microscope field, 2=50% injury in a light microscope field, 3=75% injury in a light microscope field, 4= almost 100% injury in a light microscope field. Five light microscopic fields were analyzed for a particular pathological specimen to determine mice lung injury score.

[5] = system: acute lung Injury model; conditions: literature reference; cited from earlier work
[6] = vs. LPS aerosol/vehicle IP, listed as formula 1a
[7] = reference compound, value in mM

IC50 [3] [mM]	Structure (SMILES)	Neutrophil Adhesion Inhibition IC50 [1]	Max. tolerable dose ([2]; 24 hrs, MTT) [mM]	Efficacious Dose [5] [mg/kg]	further results
0.135 ± 0.00082	O=C(CCSc1ccccn1)OC1CCCCC1 [RS-21, 3-(2-pyridylthio)propionic acid cyclohexyl ester]	not significant	0.25		
0.097 ± 0.00063	CCOC(=O)CCCCCCSc1ccccn1 [RS-32, 7-(2-pyridylthio)heptanoic acid ethyl ester]		0.5		IC50 [1]: 94 ± 0.92 µM
0.079 ± 0.00073	CCCCOC(=O)CCSc1ccccn1 [RS-20, 3-(2-pyridylthio)propionic acid butyl ester]		0.5		IC50 [1]: 85 ± 0.94 µM

Second part, the molecule before the results:

Structure (SMILES)	IC50 [3] [mM]	Neutrophil Adhesion Inhibition IC50 [1]	Max. tolerable dose ([2]; 24 hrs, MTT) [mM]	Efficacious Dose [5] [mg/kg]	further results
CCCOC(=O)CCCC(Sc1ccccn1)C(=O)OC (stereo not drawn) [AD-20, 2-(2-pyridylthio)-hexanedioic acid 1-methyl ester 6-propyl ester]	0.178 ± 0.00081	not significant	0.25		
CCCCCOC(=O)CCSc1ccccn1 [RS—Z, 3-(2-pyridylthio)propionic acid pentyl ester]	0.05		0.5		IC50 [1]: 61 µM; Lung injury caused by bacterial polysaccharide challenge ([4]; 10 mg/kg body weight): significantly reduced; Pulmonary neutrophil infiltration ([4]; 10 mg/kg body weight intraperitoneally): significantly alleviate; Efficacious Dose ([4]; acute lung injury model, mice, i.p.): 10 mg/kg; Total cell counts in the BALF ([4]; post-treatment IP 0.1, 1, 10 mg/kg, vs. LPS aerosol/vehicle IP, FIG. 2A): dose-dependently reduced; Neutrophil count in the BALF / neutrophil influx in the lungs ([4]; vs. LPS aerosol/vehicle IP): reduction of the neutrophil influx; also recorded: dose-dependently reduced; Neutrophil count in the BALF / neutrophil influx in the lungs [4, 6]: Reduction of the neutrophil influx; Lung injury score / LPS-induced lung injury ([4]; vs. LPS aerosol/vehicle IP): attenuation of the LPS-induced lung injury; also recorded: dose-dependently reduced; Lung injury score / LPS-induced lung injury [4, 6]: Attenuation of the LPS-induced lung injury
O=C1CCC(N2C(=O)c3ccccc3C2=O)C(=O)N1 (stereo not drawn) [Thalidomide, α-N-phthalimidoglutarimide]				100	
Cc1c(C)c2c(c(C)c1O)CCC(C)(C[C@H]1O[C@H](CO)[C@@H](O)[C@H](O)[C@H]1O)O2 (stereo partly drawn) [Water-soluble Vitamin E derivative, (α-D-glucopyranosyl)methyl-2,5,7,8-(tetramethyl)chroman-6-ol]				10	
COC(=O)C(CCCC(=O)OC1CCCCC1)Sc1ccccn1 (stereo not drawn) [AD-21, 2-(2-pyridylthio)-hexanedioic acid 6-cyclohexyl ester 1-methyl ester]	0.117 ± 0.00092	not significant	0.25		
CCOC(=O)CCCCCCCC(Sc1ccccn1)C(=O)OC (stereo not drawn) [AD-32, 2-(2-pyridylthio)-decanedioic acid-10-ethyl ester 1-methyl ester]	0.1 ± 0.00096	not significant	0.25		
COc1ccc(C2CNC(=O)C2)cc1OC1CCCC1 (stereo not drawn) [Rolipram]				5	
CCCCCOC(=O)CCCC(Sc1ccccn1)C(=O)OC (stereo not drawn) [AD—Z, 2-(2-pyridylthio)-hexanedioic acid-1-methyl ester 6-pentyl ester]	0.085 ± 0.00152	not significant	0.25		
CC(=O)N[C@@H](CS)C(=O)O [NAC, N-acetyl cysteine, reference compound]		not significant		150	Max. tolerable dose [2, 7]: 20 mM; IC50 [3, 7]: 6.68 mM
